The values below come from US10167284B2, “Spirocyclic compounds as agonists of the muscarinic M1 receptor and/or M4 receptor” (HEPTARES THERAPEUTICS LIMITED, priority 2015, dated 2019).

The target of assay [1] is T1, human muscarinic M1 receptor (Homo sapiens, UniProt P11229).
T1 construct: expressed in transfected cells
T1 sequence (P11229 1-460): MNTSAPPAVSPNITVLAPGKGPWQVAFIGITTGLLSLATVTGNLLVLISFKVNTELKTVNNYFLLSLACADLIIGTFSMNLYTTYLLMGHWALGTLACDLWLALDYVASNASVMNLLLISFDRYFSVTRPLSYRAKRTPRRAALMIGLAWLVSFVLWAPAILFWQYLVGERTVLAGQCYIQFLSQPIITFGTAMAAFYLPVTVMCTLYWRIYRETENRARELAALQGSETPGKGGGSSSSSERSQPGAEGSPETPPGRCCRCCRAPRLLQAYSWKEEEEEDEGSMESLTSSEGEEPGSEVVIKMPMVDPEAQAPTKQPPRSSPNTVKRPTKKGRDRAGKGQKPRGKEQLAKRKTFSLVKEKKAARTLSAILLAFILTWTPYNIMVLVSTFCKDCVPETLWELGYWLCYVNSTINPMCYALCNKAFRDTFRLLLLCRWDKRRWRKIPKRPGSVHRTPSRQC
The assay is described as follows: Alphascreen Surefire phospho-ERK1/2 functional assay, M1. To be noted: for EC50 / M1 % Emax cf. ACh: CHO cells stably expressing human M1; for EC50: phospho-ERK1/2, read-out: pEC50 M1 (converted); for Emax: CHO, read-out: M1 % Emax cf. ACh, CHO cells stably expressing human M1; for Emax / M1 % Emax cf. ACh: Emax relative to ACh. The class given is cell-based. Background: Alpha assays give light when donor and acceptor beads are brought close together.
Method: (§1) CHO cells stably expressing the human muscarinic M1, M2, M3 or M4 receptor were plated (25K/well) onto 96-well tissue culture plates in MEM-alpha+10% dialysed FBS. Once adhered, cells were serum-starved overnight. Agonist stimulation was performed by the addition of 5 μL agonist to the cells for 5 min (37° C.). Media was removed and 50 μL of lysis buffer added. After 15 min, a 4 μL sample was transferred to 384-well plate and 7 μL of detection mixture added. Plates were incubated for 2 h with gentle agitation in the dark and then read on a PHERAstar plate reader.
(§2) pEC50 and Emax figures were calculated from the resulting data for each receptor subtype.

In assay [2] the target is T2, human muscarinic M2 receptor (Homo sapiens, UniProt P08172).
T2 sequence (P08172 1-466): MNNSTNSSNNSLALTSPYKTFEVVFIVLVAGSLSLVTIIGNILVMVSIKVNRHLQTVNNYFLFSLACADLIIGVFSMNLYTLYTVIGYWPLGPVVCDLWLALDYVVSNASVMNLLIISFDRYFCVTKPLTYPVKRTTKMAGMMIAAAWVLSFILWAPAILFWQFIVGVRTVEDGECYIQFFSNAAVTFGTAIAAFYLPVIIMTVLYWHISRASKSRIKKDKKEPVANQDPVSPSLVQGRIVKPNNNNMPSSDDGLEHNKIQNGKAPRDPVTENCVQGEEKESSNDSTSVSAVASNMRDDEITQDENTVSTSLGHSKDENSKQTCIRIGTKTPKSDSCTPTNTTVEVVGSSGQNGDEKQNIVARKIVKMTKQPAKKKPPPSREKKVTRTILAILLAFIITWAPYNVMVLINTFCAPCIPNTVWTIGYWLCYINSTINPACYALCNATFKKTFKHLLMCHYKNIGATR
The experiment in a line: Alphascreen Surefire phospho-ERK1/2 functional assay, M2. The following applies: for Emax: CHO, read-out: M2 % Emax cf. ACh, CHO cells stably expressing human M2; for Emax / M2 % Emax cf. ACh: Emax relative to ACh; for EC50: pEC50 M2, CHO cells stably expressing human M2; for EC50 / pEC50 M2: phospho-ERK1/2; for M2 % Emax cf. ACh / pEC50 M2: CHO cells stably expressing human M2.
Method: as §1, §2

The target in assay [3] is human muscarinic M3 receptor (Homo sapiens, UniProt P20309). The assay is described as follows: Alphascreen Surefire phospho-ERK1/2 functional assay, M3. To be noted: for Emax: CHO, read-out: M3 % Emax cf. ACh, CHO cells stably expressing human M3; for Emax / M3 % Emax cf. ACh: Emax relative to ACh; for M3 % Emax cf. ACh / pEC50 M3: CHO cells stably expressing human M3; for pEC50 M3: phospho-ERK1/2.
Chain of human muscarinic M3 receptor (P20309 whole entry): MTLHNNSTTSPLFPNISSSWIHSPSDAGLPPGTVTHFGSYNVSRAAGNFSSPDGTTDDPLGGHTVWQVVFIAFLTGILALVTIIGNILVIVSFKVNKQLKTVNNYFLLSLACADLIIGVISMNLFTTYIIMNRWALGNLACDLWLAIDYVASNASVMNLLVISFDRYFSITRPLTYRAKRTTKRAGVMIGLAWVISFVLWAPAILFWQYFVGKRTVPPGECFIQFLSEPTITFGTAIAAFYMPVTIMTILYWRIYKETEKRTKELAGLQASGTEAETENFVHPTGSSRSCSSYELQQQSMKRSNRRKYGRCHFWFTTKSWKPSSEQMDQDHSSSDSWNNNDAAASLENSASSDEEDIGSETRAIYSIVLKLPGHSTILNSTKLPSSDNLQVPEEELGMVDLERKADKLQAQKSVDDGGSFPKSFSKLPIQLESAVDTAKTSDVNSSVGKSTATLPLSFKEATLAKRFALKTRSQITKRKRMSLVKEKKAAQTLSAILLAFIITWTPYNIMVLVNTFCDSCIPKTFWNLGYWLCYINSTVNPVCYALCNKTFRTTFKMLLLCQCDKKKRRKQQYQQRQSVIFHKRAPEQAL

In assay [4] the target is T3, human muscarinic M4 receptor (Homo sapiens, UniProt P08173).
T3 construct: expressed in transfected cells
T3 sequence (P08173 1-479): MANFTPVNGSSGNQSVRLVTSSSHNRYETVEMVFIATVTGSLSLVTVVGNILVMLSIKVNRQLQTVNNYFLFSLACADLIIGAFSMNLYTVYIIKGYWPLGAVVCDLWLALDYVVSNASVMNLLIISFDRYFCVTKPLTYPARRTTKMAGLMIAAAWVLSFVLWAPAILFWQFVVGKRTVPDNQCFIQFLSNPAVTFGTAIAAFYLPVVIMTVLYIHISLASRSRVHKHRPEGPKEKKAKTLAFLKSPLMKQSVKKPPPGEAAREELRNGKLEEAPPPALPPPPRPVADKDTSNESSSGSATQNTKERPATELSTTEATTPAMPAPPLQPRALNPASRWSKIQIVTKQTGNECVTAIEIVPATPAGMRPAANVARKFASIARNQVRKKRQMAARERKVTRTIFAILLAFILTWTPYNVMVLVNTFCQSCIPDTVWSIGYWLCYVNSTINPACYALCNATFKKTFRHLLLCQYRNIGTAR
The assay is described as follows: Alphascreen Surefire phospho-ERK1/2 functional assay, M4. The class given is cell-based. To be noted: for EC50: read-out: pEC50 M4 (converted); for Emax: CHO, read-out: M4 % Emax cf. ACh, CHO cells stably expressing human M4; for Emax / M4 % Emax cf. ACh: Emax relative to ACh.
Method: as §1, §2

[5] abbreviates: CHO cells stably expressing human M4, phospho-ERK1/2.
The mark [6] stands for this setting: CHO cells stably expressing human M4.

The Emax is the size of the effect at its maximum, as opposed to the concentration needed. Consider `COC(=O)N1CCC2(CC(N3CCC4(CC3)CNC(=O)O4)C2)C1` (single isomer, unassigned) [4-1 Isomer 2], for which the EC50 in assay [1] is 126 nM; in assay [2], greater than 20000 nM; in assay [3] it was greater than 20000 nM; in assay [4] (setting [5]), 126 nM. For the same compound, the maximal response (Emax) turned out to be 104% in assay [1], 18% in assay [2], 11% in assay [3] and 86% in assay [4].
For `CCOC(=O)N1CCC2(CC(N3CCC4(CC3)OC(=O)N(CC(C)C)C4(C)C)C2)C1` (single isomer, unassigned) [4-38 Isomer 2], in assay [1], the “M1 % Emax cf. ACh” value is reported as “(25) %” and the EC50 is greater than 20000 nM. In addition, in assay [2], the “M2 % Emax cf. ACh” value was “(3) %” and the “pEC50 M2” value is given as less than 4.7. In addition, in assay [3], the “M3 % Emax cf. ACh” value was “(1) %” and the “pEC50 M3” value is recorded as less than 4.7. Also, the “M4 % Emax cf. ACh” value in assay [4] (setting [6]) is listed as “(95) %”. Also, the EC50 in assay [4] (setting [5]) was 31.6 nM.
As for `CCCN1CC2(CCN(C3CC4(CCN(C(=O)OCC)C4)C3)CC2)OC1=O` (single isomer, unassigned) [4-7 Isomer 2], the EC50 in assay [1] was 631 nM; in assay [2], greater than 20000 nM; in assay [3], greater than 20000 nM; in assay [4] (setting [5]), 501 nM. The Emax in assay [1] turned out to be 104%; in assay [2], 41%; in assay [3], 2%; in assay [4] it was 69%.
On to `CCOC(=O)N1CCC2(CC(N3CCC4(CC3)OC(=O)NC4CC(F)(F)F)C2)C1` (single isomer, unassigned) [4-17 Isomer 1 (racemic)], for which the EC50 in assay [1] is 126 nM; in assay [2] it was greater than 20000 nM; in assay [3], greater than 20000 nM; in assay [4] (setting [5]) it was 31.6 nM. Further, the maximum response (Emax) in assay [1] was determined as 114%; in assay [2], 54%; in assay [3], 14%; in assay [4], 107%.
As for `CCOC(=O)N1CCC2(CC(N3CCC4(CC3)OC(=O)N(OC)C4CC)C2)C1` (mixture of isomers) [4-48 mixture of diastereomers], the EC50 in assay [1] was 501 nM; in assay [2], greater than 20000 nM; in assay [3], greater than 20000 nM; in assay [4] (setting [5]) it was 100 nM. Also, the maximum response (Emax) was 56% in assay [1], 3% in assay [2], 11% in assay [3] and 77% in assay [4].
Take `CCOC(=O)N1CC2(CC(N3CCC4(CC3)OC(=O)N(CC)C4(C)C)C2)C1` [Example 2-4, ethyl 6-(3-ethyl-4,4-dimethyl-2-oxo-1-oxa-3,8-diazaspiro[4.5]dec-8-yl)-2-azaspiro[3.3]heptane-2-carboxylate]: the EC50 was 1000 nM in assay [1], greater than 20000 nM in assay [2], greater than 20000 nM in assay [3] and 501 nM in assay [4] (setting [5]). In addition, the Emax in assay [1] worked out at 56%; in assay [2], 14%; in assay [3], 24%; in assay [4], 95%.
With `CCOC(=O)N1CC2(CCC(N3CCC4(CC3)OC(=O)NC4CC)C2)C1` (mixture of isomers) [8-1 mixture of diastereomers], the EC50 in assay [1] is 10 nM; in assay [2], greater than 20000 nM; in assay [3], greater than 20000 nM; in assay [4] (setting [5]), 2 nM. Moreover, the Emax in assay [1] was 70%; in assay [2], 0%; in assay [3] it was 2%; in assay [4], 70%.
Consider `CCOC(=O)N1CCC2(CC(N3CCC4(CC3)OC(=O)N(C3CC3)C4CC)C2)C1` (mixture of isomers) [4-47 mixture of diastereomers], for which the EC50 in assay [1] is 1000 nM; in assay [2] it was greater than 20000 nM; in assay [3] it was greater than 20000 nM; in assay [4] (setting [5]), 63.1 nM. Also, the Emax in assay [1] amounted to 86%; in assay [2] it was 7%; in assay [3], 7%; in assay [4] it was 106%.
With `CCOC(=O)N1CC2(CC(N3CCC4(CC3)OC(=O)NC4CC)C2)C1` (single isomer, unassigned) [2-1 Isomer 1], in assay [1], the “M1 % Emax cf. ACh” value is “(107) %” and the EC50 is 251 nM. Besides, in assay [2], the “M2 % Emax cf. ACh” value was “(15) %” and the “pEC50 M2” value is recorded as less than 4.7. Moreover, in assay [3], the “M3 % Emax cf. ACh” value was “(9) %” and the “pEC50 M3” value is less than 4.7. Besides, in assay [4] (setting [6]), the “M4 % Emax cf. ACh” value is on record as “(117) %”. Moreover, the “pEC50 M4” value in assay [4] (setting [5]) is recorded as 6.9.
For `CCOC(=O)N1CCC2(CC(N3CCC4(CC3)CNC(=O)O4)C2)C1` (single isomer, unassigned) [4-3 Isomer 2], in assay [1], the “M1 % Emax cf. ACh” value is “(116) %”. Also, the EC50 in assay [1] is 20 nM; in assay [2], greater than 20000 nM; in assay [3], greater than 20000 nM; in assay [4] (setting [5]), 39.8 nM. For the same compound, the Emax in assay [2] is 0%; in assay [3], 7%. Besides, the “M4 % Emax cf. ACh” value in assay [4] (setting [6]) is listed as “(78) %”.
As for `CCC1NC(=O)CC12CCN(C1CC3(CCN(C(=O)OC)C3)C1)CC2` (single isomer, unassigned) [3-4 Isomer 3], in assay [1], the “M1 % Emax cf. ACh” value is on record as “(101) %” and the EC50 was 79.4 nM. Moreover, in assay [2], the “M2 % Emax cf. ACh” value is “(8) %” and the EC50 is greater than 20000 nM. Also, in assay [3], the EC50 is greater than 20000 nM and the Emax was 24%. Moreover, the “M4 % Emax cf. ACh” value in assay [4] (setting [6]) is reported as “(71) %”. Moreover, the EC50 in assay [4] (setting [5]) is 25.1 nM.
As to `CCN1NC(=O)CC12CCN(C1CC3(CCN(C(=O)OC)C3)C1)CC2` (single isomer, unassigned) [6-1 Isomer 2], the EC50 in assay [1] was 631 nM; in assay [2], greater than 20000 nM; in assay [3] it was greater than 20000 nM; in assay [4] (setting [5]), 126 nM. The Emax amounted to 77% in assay [1], 13% in assay [2], 11% in assay [3] and 68% in assay [4].
As to `CCCN1C(=O)OC2(CCN(C3CC4(CCN(C(=O)OCC)C4)C3)CC2)C1CC` (single isomer, unassigned) [4-23 Isomer 3], in assay [1], the “M1 % Emax cf. ACh” value is recorded as “(88) %”. The EC50 is 316 nM in assay [1], greater than 20000 nM in assay [2], greater than 20000 nM in assay [3] and 50.1 nM in assay [4] (setting [5]). In addition, the Emax in assay [2] was determined as 8%; in assay [3], 4%. For the same compound, in assay [4] (setting [6]), the “M4 % Emax cf. ACh” value is reported as “(32) %”.
On to `CCOC(=O)N1CCC2(CC(N3CCC4(CC3)OC(=O)NC43CCCC3)C2)C1` (single isomer, unassigned) [4-31 Isomer 2], for which the EC50 in assay [1] is 794 nM; in assay [2], greater than 20000 nM; in assay [3] it was greater than 20000 nM; in assay [4] (setting [5]), 31.6 nM. Besides, the Emax in assay [1] was 66%; in assay [2] it was 4%; in assay [3], 4%; in assay [4] it was 88%.
As for `CCOC(=O)N1CCC2(CC(N3CCC4(CC3)OC(=O)NC4CC)C2)C1` (single isomer, unassigned) [4-12 Isomer 1], the “M1 % Emax cf. ACh” value in assay [1] was “(17) %”. The EC50 was greater than 20000 nM in assay [1], greater than 20000 nM in assay [2], greater than 20000 nM in assay [3] and 79.4 nM in assay [4] (setting [5]). Moreover, the “M2 % Emax cf. ACh” value in assay [2] is on record as “(50) %”. In addition, in assay [3], the maximal effect (Emax) was 4%. Moreover, the “M4 % Emax cf. ACh” value in assay [4] (setting [6]) is on record as “(63) %”.
